Test results reported in patent US12257256B2, “Compositions and methods for inhibiting type 1 collagen production” (Florida State University Research Foundation, Inc., priority 2020, dated 2025).

Legend:
LARP6/5′SL RNA complex = target: T1, LARP6/5′SL RNA complex (Homo sapiens, UniProt Q9BRS8); experiment: Gel mobility shift: purified/recombinant LARP6 binding to 5′ stem-loop RNA in vitro; details: recombinant LARP6, electrophoretic mobility shift assay, FIG. 12
T1 sequence (Q9BRS8 1-491): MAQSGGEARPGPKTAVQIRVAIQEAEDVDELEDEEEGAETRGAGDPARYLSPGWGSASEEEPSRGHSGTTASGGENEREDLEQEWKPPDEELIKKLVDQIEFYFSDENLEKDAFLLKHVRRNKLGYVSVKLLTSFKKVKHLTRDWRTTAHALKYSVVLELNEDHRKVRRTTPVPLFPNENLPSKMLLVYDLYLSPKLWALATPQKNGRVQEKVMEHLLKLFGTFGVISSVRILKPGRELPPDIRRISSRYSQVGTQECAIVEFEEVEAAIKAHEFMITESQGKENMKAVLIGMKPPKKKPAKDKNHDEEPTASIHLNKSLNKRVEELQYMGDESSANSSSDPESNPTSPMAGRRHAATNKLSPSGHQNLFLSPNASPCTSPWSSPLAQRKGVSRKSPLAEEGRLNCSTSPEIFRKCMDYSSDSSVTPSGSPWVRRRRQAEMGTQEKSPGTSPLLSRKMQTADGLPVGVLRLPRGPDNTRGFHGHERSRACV
Procedure: Next, the inhibition of LARP6 binding was tested by gel mobility shift experiments in which binding of purified LARP6 to 5′SL RNA was resolved as protein/RNA complex in gel electrophoresis.
To assess the efficacy of CID 71314610 in inhibiting LARP6 binding to its target sequence, the 5′ stem-loop of type I collagen mRNAs, recombinant LARP6 protein was added to 5′ stem-loop RNA in vitro and CID 71314610 was added at nano-M concentrations to the reaction. The formation of LARP6/RNA complex was analyzed by electrophoretic mobility shift assay.

[1] = test system: fibronectin secretion by human lung fibroblasts; experiment: Fibronectin secretion by human lung fibroblasts (western blot, specificity control); type: cell-based; details: same treatment as collagen read-out
Procedure: At 50 μM, secretion of type I collagen was reduced by about 50%. At 100 μM it was reduced by about 80%. […] This provided evidence that a component of commercial cefixime preparations can act as antifibrotic drugs.
Human lung fibroblasts are responsible for lung fibrosis. These cells were cultured in vitro and CID 71314610 was added to the cellular medium at 0.5-50 μM. After overnight incubation the medium was changed and secretion of type I collagen into the fresh medium was analyzed by western blot. The rate of collagen secretion into the medium is a measure of the profibrotic activity of cells. Type I collagen is composed of two polypeptides, α1(I) and α2(I), so both were analyzed. […] In three independent experiments the expression of α1(I) and α2(I) polypeptides was normalized to the expression of fibronectin and plotted as function of CID 71314610 concentration (FIG. 13, bottom panel).

purified LARP6 protein = target: T2, purified LARP6 protein (Homo sapiens, UniProt Q9BRS8); experiment: Affinity binding of commercial cefixime preparation to purified LARP6, elution and mass spectrometry; details: FIG. 11
T2 sequence (Q9BRS8 1-491): T1 sequence (Q9BRS8 1-491)
Description: The component with antifibrotic activity in the commercial cefixime preparations was identified by affinity binding of the commercial cefixime preparations to the purified LARP6 protein, followed by elution of the bound molecular species and their identification by mass spectrometry. […] This component has two diastereomer isoforms which were present in miniscule amounts in the commercial cefixime preparations, but both were sequestered by LARP6 protein.

[2] = test system: type I collagen secretion by human lung fibroblasts; experiment: Type I collagen secretion by human lung fibroblasts (western blot of medium); type: cell-based
Procedure: Based on the ability of the cefixime preparation 1 component to inhibit LARP6/5′SL interaction, cefixime preparation 2 was tested to inhibit type 1 collagen production by human lung fibroblasts. The cells were treated with cefixime preparation 2 in a range of concentrations for 18 hours. The cellular medium was changed and the accumulation of type I collagen into the fresh medium was measured after 3 hours. This provided an estimate of the rate by which the cells can secrete type I collagen. […] At 50 μM, secretion of type I collagen was reduced by about 50%. At 100 μM it was reduced by about 80%. […] This provided evidence that a component of commercial cefixime preparations can act as antifibrotic drugs. Human lung fibroblasts are responsible for lung fibrosis. These cells were cultured in vitro and CID 71314610 was added to the cellular medium at 0.5-50 μM. After overnight incubation the medium was changed and secretion of type I collagen into the fresh medium was analyzed by western blot. The rate of collagen secretion into the medium is a measure of the profibrotic activity of cells. Type I collagen is composed of two polypeptides, α1(I) and α2(I), so both were analyzed. […] In three independent experiments the expression of α1(I) and α2(I) polypeptides was normalized to the expression of fibronectin and plotted as function of CID 71314610 concentration (FIG. 13, bottom panel).

Compound: CC1OC(=O)C2=C1CS[C@H](CNC(=O)/C(=N\OCC(=O)O)c1csc(N)n1)N2 (mixture of isomers) [CID 71314610, 2-[[[(Z)-1-(2-Aminothiazol-4-yl)-2-[[[(2R,5RS)-5-methyl-7-oxo-1,2,5,7-tetrahydro-4H-furo[3,4-d][1,3]thiazin-2-yl]methyl]amino]-2-oxoethylidene]amino]oxy]acetic acid]
- dissociation of LARP6/RNA complexes (LARP6/5′SL RNA complex; 50 nM): 50%
- dissociation of LARP6/RNA complexes (LARP6/5′SL RNA complex; 100 nM): ~90%
- secretion of fibronectin [1]: not affected
- fraction of input present in cefixime preparation bound by LARP6 (purified LARP6 protein; one diastereomer): 50%
- fraction of input present in cefixime preparation bound by LARP6 (purified LARP6 protein; the other diastereomer): 100%
- secretion of α1(I) and α2(I) collagen polypeptides ([2]; 0.5-50 μM, overnight incubation, FIG. 13 upper panel): inhibited by CID 71314610 in the concentration dependent manner
- concentration with highly statistically significant inhibition of both polypeptides comprising type I collagen ([2]; three independent experiments, normalized to fibronectin, FIG. 13 bottom panel): 5 µM
